Laboratory results reported in patent US20090203062A1, “Method For Identifying And/Or Quantifying Anti-Infective Compounds” (priority 2005, published 2009).

How the values were obtained:
Klebsiella pneumoniae [1] = experiment: Klebsiella pneumoniae murine pulmonary infection model; assay type: in vivo; settings: 24 h post-infection, female Balb/cN mice
Protocol: Klebsiella pulmonary infection model was performed by intranasal instillation of 7-8 weeks old female Balb/cN with 20 μl containing […]. Compound or cefotaxime were injected intraperitoneally every 6 hours from the time of infection at the indicated doses. In vivo efficacy was assessed by measuring colony forming units (CFU) loads in the lungs at 24 h hours. Data analysis was performed using GraphPad Software Inc, San Diego, Calif., USA. Lane 1 is the initial load at time zero of the infection. Lane 2 is the load at 24 hours post-infection of mice treated with the vehicle only.

Klebsiella pneumoniae [2] = settings: Tetrahymena pyriformis present; compared with the antibiotic activity IC50; FIG. 9
Text: Preparation of SM no glucose (SM-) and Tetrahymena Medium is as described in example 1. […] Strains description Same Klebsiella pneumoniae strain is used as in example 1. […] Preparation of Tetrahymena pyriformis (Tp): The same Tp is used as in example 1. The day of the screen, resuspend the Tp cells in SM- and distribute Tp cells in the 384 well plates. […] Liquid dispenser for medium distribution Fill the same number of test plates as above with SM- with the liquid dispenser plate filler. (To test the antibiotic activity of the compounds). […] Description of the mother plate of compounds Each mother plate containing 24 columns of compounds is composed of 4 control columns (1, 12, 13 and 24) of DMSO and 320 wells of compounds. The DMSO columns have to be arranged according to the library. […] Transfer of library compounds with the 384 pin replicator. A test plate for quantifying anti-virulence activity contains Tp solution. A test plate for quantifying antibiotic activity contains SM-. […]
Tp, Klebsiella pneumoniae, compound are prepared as described in example 2 and incubated in a matrix containing 384 wells (12×24) wells at 35° C. in humidity saturated incubator. […] Mutations or compound affecting pathogenicity could be assessed in terms of phenotype strength and potency, respectively with decreasing concentration of Tp.

With CO/N=C(\C(=O)N[C@@H]1C(=O)N2C(C(=O)O)=C(COC(C)=O)CS[C@H]12)c1csc(N)n1 [cefotaxime] the “reduction of CFU load in the lungs” value (Klebsiella pneumoniae [1]; 37.5 mg/kg/day intraperitoneally every 6 hours) was 4 Log.
For C=CCSc1nnc(C)c(O)n1 [3-(allylsulfanyl)-5-hydroxy-6-methyl-1,2,4-triazine], the “reduction of CFU load in the lungs” value (Klebsiella pneumoniae [1]; 225 mg/kg/day intraperitoneally every 6 hours) was 4 Log.
In the case of COc1cc(Cc2cnc(N)nc2N)cc(OC)c1OC [trimethoprim], the “concentration at which the avirulence assay detected the antibiotic, lower than the IC50 of the antibiotic (sub-MIC effect)” value (Klebsiella pneumoniae [2]) is reported as 2 Log.
